Results from paper PMC12865225 (Clinical and Translational Science, 2026).

Experiments:
OATP1B3 = biological target: T1, OATP1B3 (Homo sapiens, UniProt Q9NPD5); assay: Uptake transport assay in OATP1B3-expressing HEK293 cells; type: cell-based; settings: for transport by OATP1B3: 2 and 50 μM, 10 min; for Km at 2 min: human, HEK293 cells transiently expressing OATP1B3, pH 7.4, uptake; for Km / Vmax (pmol/106 cells/min) OATP1B3: uptake; for Km at 2 min / Km / Vmax (pmol/106 cells/min) OATP1B3: 2 min
T1 construct: expressed in transfected cells; host or cells: HEK293 (recombinant baculovirus-mediated transduction)
T1 sequence (Q9NPD5 1-702): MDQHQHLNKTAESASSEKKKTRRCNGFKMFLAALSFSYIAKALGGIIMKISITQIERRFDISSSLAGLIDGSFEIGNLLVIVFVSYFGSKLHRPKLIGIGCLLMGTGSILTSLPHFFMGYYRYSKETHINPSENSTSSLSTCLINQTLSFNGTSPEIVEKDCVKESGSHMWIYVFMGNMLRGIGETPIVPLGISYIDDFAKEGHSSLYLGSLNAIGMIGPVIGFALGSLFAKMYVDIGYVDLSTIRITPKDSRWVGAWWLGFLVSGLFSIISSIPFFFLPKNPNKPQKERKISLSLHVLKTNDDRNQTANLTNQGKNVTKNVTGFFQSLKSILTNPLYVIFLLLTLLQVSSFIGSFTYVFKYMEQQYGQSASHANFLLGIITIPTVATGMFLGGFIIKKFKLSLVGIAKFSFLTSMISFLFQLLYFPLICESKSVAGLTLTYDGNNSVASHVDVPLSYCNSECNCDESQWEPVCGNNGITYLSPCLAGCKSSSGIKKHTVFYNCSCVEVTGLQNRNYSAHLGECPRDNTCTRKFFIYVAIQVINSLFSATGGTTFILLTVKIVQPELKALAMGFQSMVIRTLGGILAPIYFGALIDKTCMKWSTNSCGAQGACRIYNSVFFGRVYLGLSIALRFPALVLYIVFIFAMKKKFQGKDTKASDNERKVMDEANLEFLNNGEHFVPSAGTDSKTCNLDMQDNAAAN
Procedure: The human transporters OATP1B1, OATP1B3, OATP2B1, and OAT1‐OAT4 and a negative control protein (enhanced yellow fluorescent protein, eYFP) were transiently expressed in human embryonic kidney 293 (HEK293) cells by recombinant baculovirus‐mediated transduction. Baculoviruses carrying human genes for the transporters were prepared as reported previously. HEK293 cells were cultured in DMEM containing 10% fetal bovine serum at 37°C and 5% CO2 and passaged two to three times per week. For the transport studies, 0.05 × 10^6 cells for 48‐well plates (OATPs) or 0.06 × 10^6 cells for 24‐well plates (OATs) were seeded onto cell‐culture treated well plates coated with poly‐D‐lysine. After 1 day, cells were transduced to produce recombinant proteins by changing media to DMEM containing 30 μL (48‐well plates) or 60 μL (24‐well plates) of recombinant baculovirus and 3 mM (OATs) or 5 mM (OATPs) sodium butyrate in a total media volume of 500 μL. The cells were cultured for a further 2 days before the transport assays.
For the transport studies, media were removed and cells were washed once with warm transport uptake buffer (TP‐buffer—pH 7.4 HBSS with 25 mM HEPES and 4 mM sodium bicarbonate). Each experiment included triplicate (OATP) or duplicate (OAT) samples for every test condition. The uptake was started by removing liquid from wells and applying warm TP‐buffer (200 μL for 24‐well plates or 125 μL for 48‐well plates) containing a test compound to cells. Transport assays were terminated after a pre‐specified incubation time (reported in figure legends) by removing substrate solution and washing cells three times with cold TP‐buffer (300 μL for 48‐well plates and 400 μL for 24‐well plates). For the liquid chromatography mass spectrometry (LC–MS) analysis, compounds were extracted from cells with 125 μL (48‐well plates) or 250 μL (24‐well plates) of an ultrapure‐water solution containing 75% methanol and 0.1% formic acid, shaking at 250 RPM for 30 min. […] Samples were transferred to well plates, centrifuged at 3000 g for 30 min, and transferred to a new well plate for the analysis.
Equation (2) (the Michaelis–Menten equation) was fit to the transport kinetic assay data. […] (2) Uptake=Vmax×S/Km+S

[1] = cited from earlier work; for Cmax: 1000 mg dose, read-out: total C max; for unbound fraction in plasma: static model input
OAT3 = biological target: T2, OAT3 (Homo sapiens, UniProt Q8TCC7); assay: OAT3 inhibition with 30 min preincubation, fluorescein
T2 sequence (Q8TCC7 1-542): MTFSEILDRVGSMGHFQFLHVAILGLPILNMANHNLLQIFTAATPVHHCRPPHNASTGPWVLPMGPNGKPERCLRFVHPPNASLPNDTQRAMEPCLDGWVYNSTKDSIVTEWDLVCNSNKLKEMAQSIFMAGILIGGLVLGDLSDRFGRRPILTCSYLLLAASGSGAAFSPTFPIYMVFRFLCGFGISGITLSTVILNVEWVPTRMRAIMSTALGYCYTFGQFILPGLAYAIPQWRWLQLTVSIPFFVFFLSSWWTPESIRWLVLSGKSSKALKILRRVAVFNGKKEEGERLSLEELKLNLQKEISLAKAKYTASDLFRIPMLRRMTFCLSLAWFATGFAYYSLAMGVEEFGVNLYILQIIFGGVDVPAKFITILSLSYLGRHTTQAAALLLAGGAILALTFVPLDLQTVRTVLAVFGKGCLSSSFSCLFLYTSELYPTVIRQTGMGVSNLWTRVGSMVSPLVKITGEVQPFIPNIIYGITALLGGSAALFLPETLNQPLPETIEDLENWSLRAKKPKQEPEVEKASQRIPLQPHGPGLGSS
Procedure: In the OATP inhibition assays, inhibitors in warm TP‐buffer were directly applied to cells after media removal, followed by a 30‐min preincubation step in the presence of inhibitors. No preincubation step was included in the OAT inhibition assays. The inhibition assays were conducted as described above, except that inhibitors were included in the substrate solution. The rosuvastatin concentration was 2.5 μM in the OATP inhibition assays, and the transport assays were conducted for 2 min [24]. For the inhibition studies of OAT1 and OAT3, 5 μM fluorescein was assayed within 5 min, while 34 nM methotrexate within a 10 min assay was employed as the substrate for OAT2 and OAT4 [25, 26, 27, 28]. OAT1 and OAT3 cells were lysed with 200 μL of 1 M sodium hydroxide for 10 min, and 150 μL of these samples were transferred to a black well plate for fluorescein quantification. OAT2 and OAT4 cells were lysed with 200 μL of 0.1% Triton‐X100 for 10 min, and 150 μL of the samples were mixed with 4 mL of scintillation cocktail (Opti‐Fluor from PerkinElmer, Waltham, MA, USA). Each inhibition assay included a vehicle control without an inhibitor.
Cells were pre-incubated with the inhibitors and
vehicle for 30 min before the assay was initiated with fresh solutions of inhibitors and substrate.
The uptake into control cells was subtracted from the uptak e into OAT3-expressing cells for […]

Compound | transport by OATP1B3 (OATP1B3) | Km at 2 min (OATP1B3) [µM] | Km (OATP1B3) [µM] | Vmax (pmol/106 cells/min) OATP1B3 (OATP1B3) [pmol/106 cells/min] | Cmax [1] [µM] | unbound fraction in plasma [1] | IC50 (OAT3) [µM]
Cc1onc(-c2c(Cl)cccc2Cl)c1C(=O)N[C@@H]1C(=O)N2[C@@H]1SC(C)(C)[C@@H]2C(=O)O [Dicloxacillin] | transported | 2.81 | 3 | 2.69 | 67 | 0.02 | 18.3
Cc1onc(-c2c(F)cccc2Cl)c1C(=O)N[C@@H]1C(=O)N2[C@@H]1SC(C)(C)[C@@H]2C(=O)O [Flucloxacillin] | transported | 18.3 | 10 to 18 | 6.02 | 46 | 0.06 | 30.1
